Reference: US4501750A, “Thiazole compounds, a process for preparing same and a pharmaceutical composition containing the thiazole compounds” (Mitsui Toatsu Kaguku Kabushiki Kaisha, priority 1981, dated 1985)
Where a name gives a salt, the structure may show the parent alone.

System: adjuvant arthritis
Test: Adjuvant Arthritis Test (Mycobacterium tuberculosis adjuvant)
Type: in vivo, SD male rats
Conditions: 5 mg per Kg subcutaneously, 9 times in total; left hind leg; * P<0.05, ** P<0.01 vs control
Description: The adjuvant arthritis in rats caused by the injection of a Mycobacterium tuberculosis adjuvant is often utilized for a model test of chronic rheumatoid arthritis in human.
The mechanism of manifestation of this disease has not completely been elucidated, but it is known that the cellular immunity plays an important role. The immuno-modulating activity of the compounds of the present invention was investigated in accordance with this known adjuvant arthritis test.
8-Week-old SD male rats were used for the test. In 0.1 ml of fluid paraffin, 0.4 mg of dry-dead cells of Mycobacterium tuberculosis were suspended, and the suspension was injected under the heel skin of the right hind leg of each rat. Each of the compounds of the present invention was subcutaneously administered 9 times in total before and after the injection of the adjuvant. Each of the compounds of the present invention was dissolved or suspended in a 0.2% solution of carboxymethylcellulose in physiological saline and administered to each rat at a dose of 5 mg per Kg of the body weight. The swollen volume of the left hind leg was measured during the period of from the day of injection to the day of completion of the test, and the swelling ratio was calculated. For comparison, a similar test was conducted using Levamisole hydrochloride. F.t tests were carried out on the test results obtained.

Compared with `c1ccc([C@H]2CN3CCSC3=N2)cc1` [Levamisole.HCl, Levamisole hydrochloride, reference compound], `CC(Cl)C(=O)Nc1nc(-c2ccccc2)cs1` (stereo not drawn) [drawing 16] is lower in “Swell suppression ratio to control group (average value from 16th to 20th days)” value (shortened to “Swell suppression ratio to control group”): 19.8% for the first, 12.1% for the second.

Going from `O=C(Nc1nc(-c2ccccc2)cs1)C(=O)Nc1nc(-c2ccccc2)cs1` [drawing 12] to `O=C(Nc1nc(-c2ccc(Cl)cc2)cs1)C(=O)Nc1nc(-c2ccc(Cl)cc2)cs1` [drawing 13], the “Swell suppression ratio to control group” value rises from 51.0% to 51.9%.

First: COc1ccc(-c2csc(NC(=O)C(=O)Nc3nc(-c4ccc(OC)cc4)cs3)n2)cc1 [drawing 14]
Second: CSc1sc(NC(=O)C(=O)Nc2nc(-c3ccccc3)c(SC)s2)nc1-c1ccccc1 [drawing 15]
The “Swell suppression ratio to control group” value of the first is lower: 14.1% for the first, 35.5% for the second.

With `CC(Br)C(=O)Nc1nc(-c2ccccc2)cs1` (stereo not drawn) [drawing 17] the “Swell suppression ratio to control group” value was 20.0%.

System: not listed separately
Test: Acute Toxicity Test through Oral Administration
Type: in vivo
Conditions: ddY male mice, 7 days observation
Description: To each of a group of five ddY male mice, was orally administered a medicine dissolved or suspended in physiological saline.

For `c1ccc([C@H]2CN3CCSC3=N2)cc1` [Levamisole.HCl, Levamisole hydrochloride, reference compound], the “estimated LD50” value was 200 to 300 mg/kg.

System: delayed hypersensitivity induced by picryl chloride
Test: Reinforcement Test of Delayed Hypersensitivity (picryl chloride, pinna thickness)
Type: in vivo, ICR male mice
Conditions: 50 mg per Kg orally, simultaneously with sensitization; 24 hours after challenging; average of both pinnae of eight mice; * P<0.05, ** P<0.01 vs control
Description: The delayed hypersensitivity induced on a mouse when picryl chloride(2-chloro-1,3,5-trinitrobenzene) is coated on the skin of the mouse is known as a typical cellular immunity.
The above test system was used for the reinforcement tests of the delayed hypersensitivity.
Groups of eight ICR male mice, each having a body weight of about 30 g, were used for the test.
Sensitization was effected by coating a 3% solution of picryl chloride in a 4/1 mixture of olive oil and acetone on the shaved abdomen of each of the mice.
Simultaneously with the sensitization, a solution or suspension of a compound of the present invention dissolved or suspended in a 0.2% solution of carboxymethylcellulose in a physiological saline was orally administered to the mouse at a dose of 50 mg per Kg of its body weight. To each mouse of a control group, a 0.2% carboxymethylcellulose solution was similarly administered in a physiological saline.
The delayed hypersensitivity was induced 7 days after the sensitization by pinching each of the pinnae of each mouse with a pair of forceps whose tip portions were wrapped with a felt impregnated with a 1% solution of picryl chloride in olive oil and coating the pinnae with the solution. The thickness of each pinna was measured before the challenging and 24 hours after the challenging and the ratio of increase of the thickness (average value of both of the pinnae of the eight mice) is shown in Table 1.
For comparison, a similar test was carried out using Levamisole hydrochloride.
F.t tests were carried out on the thus-obtained test results.

Going from `c1ccc([C@H]2CN3CCSC3=N2)cc1` [Levamisole.HCl, Levamisole hydrochloride, reference compound] to `CC(Cl)C(=O)Nc1nc(-c2ccccc2)cs1` (stereo not drawn) [drawing 10], the “Ratio of Increase of Pinna Thickness” value rises from 31.2% to 36.1%.

Compared with `O=C(Nc1nc(-c2ccccc2)cs1)C(=O)Nc1nc(-c2ccccc2)cs1` [drawing 6], `O=C(Nc1nc(-c2ccc(Cl)cc2)cs1)C(=O)Nc1nc(-c2ccc(Cl)cc2)cs1` [drawing 7] is lower in “Ratio of Increase of Pinna Thickness” value: 30.3% for the first, 29.5% for the second.

First: COc1ccc(-c2csc(NC(=O)C(=O)Nc3nc(-c4ccc(OC)cc4)cs3)n2)cc1 [drawing 8]
Second: CSc1sc(NC(=O)C(=O)Nc2nc(-c3ccccc3)c(SC)s2)nc1-c1ccccc1 [drawing 9]
The “Ratio of Increase of Pinna Thickness” value of the first is higher: 36.5% for the first, 27.3% for the second.

In the case of `CC(Br)C(=O)Nc1nc(-c2ccccc2)cs1` (stereo not drawn) [drawing 11], the “Ratio of Increase of Pinna Thickness” value was 32.9%.
